Data: patent US20100216767A1, “QUINAZOLINES FOR PDK1 INHIBITION” (priority 2006, published 2010)

Target: T1, PDK1 kinase (Homo sapiens, UniProt O15530)
T1 sequence (O15530 1-556): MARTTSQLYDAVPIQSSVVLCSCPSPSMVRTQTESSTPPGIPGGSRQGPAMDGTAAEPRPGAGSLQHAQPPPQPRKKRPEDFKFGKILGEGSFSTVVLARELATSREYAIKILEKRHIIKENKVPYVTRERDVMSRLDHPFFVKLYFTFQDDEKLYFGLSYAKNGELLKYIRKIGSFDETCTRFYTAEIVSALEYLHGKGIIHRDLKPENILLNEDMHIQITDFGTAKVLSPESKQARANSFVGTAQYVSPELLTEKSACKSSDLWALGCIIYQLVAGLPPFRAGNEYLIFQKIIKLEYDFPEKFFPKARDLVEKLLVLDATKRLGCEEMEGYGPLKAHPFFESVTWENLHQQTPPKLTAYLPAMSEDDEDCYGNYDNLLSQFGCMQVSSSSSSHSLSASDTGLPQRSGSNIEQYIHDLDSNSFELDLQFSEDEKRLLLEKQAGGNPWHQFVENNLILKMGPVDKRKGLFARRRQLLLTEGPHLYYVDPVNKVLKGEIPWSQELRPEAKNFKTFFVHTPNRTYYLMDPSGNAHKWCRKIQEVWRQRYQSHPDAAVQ
Experiment: PDK1 Kinase Alpha Screen Assay
Format: biochemical
Details: Table 1; 10 μM ATP, 50 nM PDK1-4 peptide
Method in brief: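 PDK1 phosphorylation of 50 nM biotinylated PDK1-4 peptide with 10 μM ATP in 50 mM Tris pH 7.5, 10 mM MgCl2, 0.1% BSA, 0.01% Tween-20, 2 mM DTT, 2.5% DMSO, 3-18 h. Stopped with EDTA; phosphopeptide detected by AlphaScreen using phospho-(Ser/Thr) PKA substrate antibody on protein A acceptor and streptavidin donor beads, overnight at room temperature.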

Row | SMILES | IC50 [µM]
1 | C#Cc1cc(Cl)c2nc(Nc3cc(CN4CCOCC4)cc(NC(C)=O)c3)ncc2c1 [Example 129, N-(3-(8-chloro-6-ethynyl-quinazolin-2-ylamino)-5-(morpholinomethyl)-phenyl)-acetamide] | < 5
2 | C#Cc1ccc2nc(Nc3cc(NC(C)=O)cc(NC(C)=O)c3)ncc2c1Cl [Example 130, N,N′-(5-(5-chloro-6-ethynylquinazolin-2-ylamino)-1,3-phenylene-) diacetamide] | < 5
3 | CC(=O)Nc1cc(CN2CCOCC2)cc(Nc2ncc3cc(-c4nccs4)ccc3n2)c1 [Example 133, N-(3-(morpholinomethyl)-5-(6-(thiazol-2-yl)-quinazolin-2-ylamino)-phenyl)acetamide] | < 5
4 | CC(=O)Nc1cc(CN(C)C)cc(Nc2ncc3cc(Br)cc(F)c3n2)c1 [Example 135, N-(3-(6-Bromo-8-fluoroquinazolin-2-ylamino)-5-((dimethylamino)-methyl)phenyl)acetamide] | < 5
5 | CC(=O)Nc1cc(CN2CCOCC2)cc(Nc2ncc3cc(-c4cnoc4)ccc3n2)c1 [Example 136, N-(3-(6-(isoxazol-4-yl)quinazolin-2-ylamino)-5-(morpholinomethyl)-phenyl)-acetamide] | < 5
6 | C#Cc1ccc2nc(Nc3cc(CN)cc(NC(C)=O)c3)ncc2c1 [Example 137, N-(3-(aminomethyl)-5-(6-ethynylquinazolin-2-ylamino)phenyl)acetamide] | < 5
7 | C#Cc1ccc2nc(Nc3ccccc3)ncc2c1 [Example 138, 6-ethynyl-N-phenyl-quinazolin-2-amine] | < 5
8 | C#Cc1cc(F)c2nc(Nc3cc(CN(C)C)cc(NC(C)=O)c3)ncc2c1 [Example 139, N-(3-((Dimethylamino)methyl)-5-(6-ethynyl-8-fluoroquinazolin-2-ylamino)-phenyl)acetamide] | < 5
9 | COc1cc2nc(Nc3cc(CN4CCOCC4)cc(NC(C)=O)c3)ncc2cc1-c1nccs1 [Example 140, N-(3-(7-methoxy-6-(thiazol-2-yl)quinazolin-2-ylamino)-5-(morpholino-methyl)phenyl)-acetamide] | < 5
10 | C#Cc1ccc2nc(Nc3cc(CN4CCNCC4)cc(NC(C)=O)c3)ncc2c1 [Example 141, N-(3-(6-ethynylquinazolin-2-ylamino)-5-(piperazin-1-ylmethyl)phenyl)acetamide] | < 5
11 | C#Cc1ccc2nc(Nc3cc(CN4CCOCC4)cc(NC(=O)C(C)C)c3)ncc2c1 [Example 142, N-(3-(6-ethynylquinazolin-2-ylamino)-5-(morpholino-methyl)phenyl)-isobutyramide] | < 5
12 | C#Cc1ccc2nc(Nc3cc(CN4CCOCC4)cc(NS(C)(=O)=O)c3)ncc2c1 [Example 143, N-(3-(6-ethynylquinazolin-2-ylamino)-5-(morpholino-methyl)phenyl)methane-sulfonamide] | < 5
13 | Brc1ccc2nc(Nc3cc(CN4CCOCC4)cc(-c4nnn[nH]4)c3)ncc2c1 [Example 144, 6-bromo-N-(3-(morpholinomethyl)-5-(1H-tetrazol-5-yl)phenyl)-quinazolin-2-amine] | < 5
14 | CC(=O)Nc1cc(CN2CCOCC2)cc(Nc2ncc3cc(Br)ccc3n2)c1 [Example 145, N-(3-(6-bromoquinazolin-2-ylamino)-5-(morpholino-methyl)phenyl)acetamide] | < 5
15 | C#Cc1ccc2nc(Nc3cc(NC(C)=O)cc(-c4ccncc4)c3)ncc2c1 [Example 146, N-(3-(6-ethynylquinazolin-2-ylamino)-5-(pyridin-4-yl)phenyl)acetamide] | < 5
16 | CC(=O)Nc1cc(CN(C)C)cc(Nc2ncc3cc(Br)ccc3n2)c1 [Example 147, N-(3-(6-bromoquinazolin-2-ylamino)-5-((dimethyl-amino)methyl)phenyl)-acetamide] | < 5
17 | CC#Cc1ccc2nc(Nc3cc(CN(C)C)cc(NC(C)=O)c3)ncc2c1 [Example 148, N-(3-((dimethylamino)-methyl)-5-(6-(prop-1-ynyl)quinazolin-2-ylamino)phenyl)acetamide] | < 5

Row | SMILES | IC50 [µM]
18 | C#Cc1ccc2nc(Nc3cc(CN4CCOCC4)cc(-c4nnn[nH]4)c3)ncc2c1 [Example 149, 6-ethynyl-N-(3-(morpholinomethyl)-5-(1H-tetrazol-5-yl)phenyl)-quinazolin-2-amine] | < 5
19 | COc1cc2nc(Nc3ccc(N4CCOCC4)cc3)ncc2cc1-c1cn[nH]c1 [Example 150, 7-methoxy-N-(4-morpholinophenyl)-6-(1H-pyrazol-4-yl)quinazolin-2-amine] | < 5
20 | N#Cc1cc(CN2CCOCC2)cc(Nc2ncc3cc(Br)ccc3n2)c1 [Example 151, 3-(6-bromoquinazolin-2-ylamino)-5-(morpholino-methyl)benzonitrile] | < 5
21 | C#Cc1ccc2nc(Nc3cc(C#N)cc(CN4CCOCC4)c3)ncc2c1 [Example 152, 3-(6-ethynylquinazolin-2-ylamino)-5-(morpholino-methyl)benzonitrile] | < 5
22 | CC(=O)Nc1cc(Nc2ncc3cc(Br)ccc3n2)cc(-c2cn[nH]c2)c1 [Example 153, N-(3-(6-bromoquinazolin-2-ylamino)-5-(1H-pyrazol-4-yl)phenyl)acetamide] | < 5
23 | C#Cc1ccc2nc(Nc3cc(OC)cc(-n4nnnc4C)c3)ncc2c1 [Example 156, 6-ethynyl-N-(3-methoxy-5-(5-methyl-1H-tetrazol-1-yl)phenyl)quinazolin-2-amine] | < 5
24 | C#Cc1ccc2nc(Nc3cc(-c4ccncc4)cc(N4CCOCC4)c3)ncc2c1 [Example 157, 6-ethynyl-N-(3-morpholino-5-(pyridin-4-yl)phenyl)quinazolin-2-amine] | < 5
25 | C#Cc1ccc2nc(Nc3cc(-c4cn[nH]c4)cc(N4CCOCC4)c3)ncc2c1 [Example 158, 6-ethynyl-N-(3-morpholino-5-(1H-pyrazol-4-yl)phenyl)-quinazolin-2-amine] | < 5
26 | C#Cc1ccc2nc(Nc3cc(-c4cccnc4)cc(N4CCOCC4)c3)ncc2c1 [Example 159, 6-ethynyl-N-(3-morpholino-5-(pyridin-3-yl)phenyl)quinazolin-2-amine] | < 5
27 | C#Cc1ccc2nc(Nc3cc(-c4ccncc4F)cc(N4CCOCC4)c3)ncc2c1 [Example 160, 6-ethynyl-N-(3-(3-fluoro-pyridin-4-yl)-5-morpholinophenyl)-quinazolin-2-amine] | < 5
28 | C#Cc1ccc2nc(Nc3cc(CN4CCOCC4)cc(NC(C)=O)c3)ncc2c1F [Example 161, N-(3-(6-ethynyl-5-fluoro-quinazolin-2-ylamino)-5-(morpholinomethyl)-phenyl)-acetamide] | < 5
29 | C#Cc1ccc2nc(Nc3cc(CN4CCOCC4)cc(NS(C)(=O)=O)c3)ncc2c1F [Example 162, N-(3-(6-ethynyl-5-fluoro-quinazolin-2-ylamino)-5-(morpholinomethyl)-phenyl)-methanesulfonamide] | < 5
30 | COc1cc(-c2nccs2)c(-c2nccs2)c2cnc(Nc3ccc(N4CCOCC4)cc3)nc12 [Example 169, 8-methoxy-N-(4-morpholinophenyl)-5,6-di(thiazol-2-yl)quinazolin-2-amine] | < 5
31 | COc1cc(-c2nccs2)c(-c2nccs2)c2cnc(Nc3ccc(C(=O)N4CCOCC4)cc3)nc12 [Example 170, (4-(8-methoxy-5,6-di(thiazol-2-yl)quinazolin-2-ylamino)phenyl)-(morpholino)methanone] | 5 to 10
32 | C#Cc1cc2cnc(Nc3cc(OC)cc(-n4nnnc4C)c3)nc2cc1OC [Example 172, 6-ethynyl-7-methoxy-N-(3-methoxy-5-(5-methyl-1H-tetrazol-1-yl)phenyl)-quinazolin-2-amine] | 5 to 10
33 | COc1cc2cnc(Nc3cc(CN4CCOCC4)cc(NC(C)=O)c3)nc2cc1OC [Example 174, N-(3-(6,7-dimethoxy-quinazolin-2-ylamino)-5-(morpholinomethyl)-phenyl)acetamide] | < 5
34 | COc1cc2nc(Nc3cc(CN4CCOCC4)cc(NC(C)=O)c3)ncc2cc1-c1cn[nH]c1 [Example 175, N-(3-(7-methoxy-6-(1H-pyrazol-4-yl)quinazolin-2-ylamino)-5-(morpholino-methyl)phenyl)acetamide] | < 5
